One data set has as its system HSV-1 virus (KOS strain). The data set is described as follows: HSV-1 viral yields in supernatants of OC3 cells, plaque assay. It counts as cell-based, Herpes simplex virus type 1. The method, then:
(§1) FIG. 4 provides Experimental conditions for evaluation of the effects of Antrodia camphorata fruit body extracts on oral epithelial cells during HSV-1 infection. Three experimental conditions, including no-treatment, pre-treatment and post-treatment were performed. Oral epithelial cells (OC3) were pre-treated with media only or media containing each Antrodia camphorata extracts for 2 hours, followed by HSV-1 inoculation. Cells were infected with HSV-1 viruses at multiplicity of infection (MOI) of 5 or mock infected for 1 hour at 37° C. for viral entry to occur. Antrodia camphorata extracts were not added during viral inoculation for 1 hour to avoid of its direct effects on virions. Mock- or HSV-1-infected cells were further incubated in the absence or presence of the drug for 19 hours.
(§2) The oral epithelial cell line (OC3) was used to determine the possible effects of Antrodia camphorata extracts on oral epithelial cells during HSV-1 infection. Cell monolayers were treated as illustrated in FIG. 4 (please also see details in the Materials and Methods section). Three experimental conditions, including no-treatment, pre-treatment and post-treatment were performed. Whether these Antrodia camphorata extracts have effects before or after viral infection were examined. The effects of Antrodia camphorata extracts on viral propagation (viral yields) in infected oral epithelial cells were examined. At 19-20 h post infection, viral yields in the supernatants were determined using the plaque assay. Viability of treated cells was also determined using the MTT assay for the mitochondrial dehydrogenase activity. Moreover, purified HSV-1 virions were directly treated with Antrodia camphorata extracts to examine whether Antrodia camphorata extracts exert anti-HSV-1 activity directly on virus particles before viral entry.
HSV-1 virus (KOS strain) from the extra-cellular fluid of infected Vero cells was purified using sucrose-gradient. Purified viruses were stored frozen in small aliquots. Purified viruses were titered using the plaque assay.
Oral epithelial cells (OC3 cells) were infected with HSV-1 at multiplicity of infection (MOI) of 5 or mock infected for 1 h at 37° C. for viral entry to occur. Unbound viruses were removed. Infected cells were then overlaid with appropriate media and incubated at 37° C. The Antrodia camphorata fruit body extracts used were A2 (Antrodia camphorata extracts), A3 (dehydrosulphurenic acid), A4 (antcin K), A5 (versisponic acid), and A6 (dehydroeburicoic acid). For the effects of Antrodia camphorata fruit body extracts, oral cells were treated in three different experimental conditions (FIG. 1): (1) no treatment, (2) pre-treatment with each Antrodia camphorata fruit body extracts before infection and (3) post-treatment with each Antrodia camphorata fruit body extracts after infection. Purified HSV-1 virions were also incubated directly with media only or media containing Antrodia camphorata fruit body extracts. The viral infectivity of treated virions was then examined using the plaque assay.
Viral titers in the supernatants after infection were determined using the plaque assay. Cells were grown to confluence and infected with tenfold serial dilution of the samples. Cells were then overlaid with medium containing 3% carboxymethylcellulose to prevent the formation of secondary plaques. Cells were incubated until well-defined clear plaques were formed. Cells were fixed with 3.7% formaldehyde and stained with crystal violet. Plaques were observed and counted under an inverted microscope. The viral yield of the media-pretreated HSV-1 infected control was considered to be 100%.

Data set [1] deals with Oral epithelial cells (OC3). Briefly: MTT cell viability of mock- or HSV-1-infected oral epithelial cells (OC3). In kind it is cell-based. The method, then:
as §1
as §2, with “entry. […]” for “entry.”
The mitochondrial dehydrogenase activity of treated cells was evaluated using the FBS-free medium containing 1 mg/ml of 3-[4,5-dimethylthiazol-2-yl]-2,5 diphenyltetrazolium bromide (MTT). […]

This is an account of results in patent publication US11253527B2, “Method and composition for inhibiting virus infection” (priority 2019, dated 2022).

Turning to `C=C(CC[C@@H](C)[C@H]1CC[C@H]2C3=C(C(=O)C[C@]12C)[C@@]1(C)CCC(O)[C@](C)(O)C1CC3O)C(C)C(=O)O` (stereo partly shown) [A4, antcin K], in the data set on HSV-1 virus (KOS strain) (OC3 cells post-treated after HSV-1 infection (MOI 5), 19 hours), the “viral yields in the supernatants, post-treatment” value is “significantly reduced”. Also, in the data set on HSV-1 virus (KOS strain) (OC3 cells pre-treated 2 hours before HSV-1 infection (MOI 5)), the “viral yields in the supernatants, pre-treatment” value is on record as “little effects”. Besides, in the data set on HSV-1 virus (KOS strain) (infected OC3 cells post-treated with 100 μg/ml, media control = 100%), the “viral yield reduced to” value turned out to be 19%. Further, the “viability of mock-infected cells or HSV-1 infected cells” value in data set [1] was “not affected evidently”.
